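Briefly, cells in 96-well plates were exposed to five compound concentrations for 48 h, and endpoints were estimated by linear interpolation. Here, GI50 denotes the concentration required for 50% inhibition of growth.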 The source made the active and inactive calls. No stated cut-off is given here; in the data, active = GI50 up to about 1.1 µM and inactive = higher.
Legend:
Assay in all cases: NCI anticancer screen, dose series, 48 h
A498 = test system: A498
A549 = test system: A549
ACHN = test system: ACHN
CCRF-CEM = test system: CCRF-CEM
EKVX = test system: EKVX
HCT-15 = test system: HCT-15
Hs-578T = test system: Hs-578T
IGROV-1 = test system: IGROV-1
MCF7 = test system: MCF7
MDA-MB-231 = test system: MDA-MB-231
NCI-H23 = test system: NCI-H23
NCI-H460 = test system: NCI-H460
NCI-H522 = test system: NCI-H522
OVCAR-3 = test system: OVCAR-3
OVCAR-5 = test system: OVCAR-5
SF-295 = test system: SF-295
SF-539 = test system: SF-539
SNB-75 = test system: SNB-75
SW-620 = test system: SW-620
TK-10 = test system: TK-10

Row | SMILES | GI50 (A498) | GI50 (A549) | GI50 (ACHN) | GI50 (CCRF-CEM) | GI50 (EKVX) | GI50 (HCT-15) [µM] | GI50 (Hs-578T) | GI50 (IGROV-1) | GI50 (MCF7) | GI50 (MDA-MB-231) | GI50 (NCI-H23) | GI50 (NCI-H460) | GI50 (NCI-H522) | GI50 (OVCAR-3) | GI50 (OVCAR-5) | GI50 (SF-295) | GI50 (SF-539) | GI50 (SNB-75) | GI50 (SW-620) | GI50 (TK-10)
1 | CN(CC(=O)N1CC(CCl)c2ccc([N+](=O)[O-])cc21)CC(=O)N1CC(CCl)c2ccc([N+](=O)[O-])cc21 (stereo not given) | > 100 µM (inactive) | > 100 µM (inactive) | > 100 µM (inactive) | > 100 µM (inactive) | > 100 µM (inactive) | > 100 | > 100 µM (inactive) | 34.9 µM (inactive) | > 100 µM (inactive) | > 100 µM (inactive) | > 100 µM (inactive) | > 100 µM (inactive) | 7.73 µM (inactive) | 74.1 µM (inactive) | > 100 µM (inactive) | > 100 µM (inactive) | > 100 µM (inactive) | > 100 µM (inactive) | > 100 µM (inactive) | > 100 µM (inactive)
2 | OC(c1nc2ccccc2s1)(C(F)(F)F)C(F)(F)F | > 100 µM (inactive) | > 100 µM (inactive) | > 100 µM (inactive) | > 100 µM (inactive) | > 100 µM (inactive) | > 100 | > 100 µM (inactive) | > 100 µM (inactive) | > 100 µM (inactive) | > 100 µM (inactive) | > 100 µM (inactive) | > 100 µM (inactive) | > 100 µM (inactive) | > 100 µM (inactive) | > 100 µM (inactive) | > 100 µM (inactive) | > 100 µM (inactive) | > 100 µM (inactive) | > 100 µM (inactive) | > 100 µM (inactive)
3 | O=C1C(Cl)C(c2cc3cc(Br)ccc3nc2Cl)N1c1c(Cl)cccc1Cl (stereo not given) | > 25 µM (inactive) | > 25 µM (inactive) | 15.9 µM (inactive) | 7.53 µM (inactive) | 6.32 µM (inactive) | 13.4 | > 25 µM (inactive) | 6.9 µM (inactive) | 6.76 µM (inactive) | 19.3 µM (inactive) | 20.4 µM (inactive) | > 25 µM (inactive) | 5.37 µM (inactive) | 18.2 µM (inactive) | > 25 µM (inactive) | > 25 µM (inactive) | 5.27 µM (inactive) | > 25 µM (inactive) | 11.6 µM (inactive) | > 25 µM (inactive)
4 | O=C(c1cccc(OCc2ccccc2)c1OCc1ccccc1)N1CCSC1=S | 16.5 µM (inactive) | 23.7 µM (inactive) | 33.8 µM (inactive) | 5.05 µM (inactive) | 37.8 µM (inactive) | 23.2 | 2.29 µM (inactive) | 28.6 µM (inactive) | 23 µM (inactive) | 19.8 µM (inactive) | 19.1 µM (inactive) | 28 µM (inactive) | 12.3 µM (inactive) | 21.1 µM (inactive) | 71.3 µM (inactive) | 30 µM (inactive) | 33.3 µM (inactive) | 5.64 µM (inactive) | 43.4 µM (inactive) | 56.5 µM (inactive)
5 | Cc1ccc2c(c1C)CC1(Cc3c(ccc4c3CCC4)C1=O)C2=O (stereo not given) | > 100 µM (inactive) | > 100 µM (inactive) | > 100 µM (inactive) | > 100 µM (inactive) | > 100 µM (inactive) | > 100 | > 100 µM (inactive) | > 100 µM (inactive) | 21.9 µM (inactive) | > 100 µM (inactive) | > 100 µM (inactive) | > 100 µM (inactive) | > 100 µM (inactive) | 65.9 µM (inactive) | > 100 µM (inactive) | > 100 µM (inactive) | 0.652 µM (active) | 51.6 µM (inactive) | > 100 µM (inactive) | > 100 µM (inactive)
6 | COC(=O)c1ccc(C)cc1C1CN=NC12Cc1c(C)cccc1C2=O (stereo not given) | 52.5 µM (inactive) | 49.4 µM (inactive) | 45.4 µM (inactive) | 53.5 µM (inactive) | > 100 µM (inactive) | 28.6 | 37.6 µM (inactive) | 46.1 µM (inactive) | 0.394 µM (active) | 38.5 µM (inactive) | 39.4 µM (inactive) | 64.7 µM (inactive) | 24.2 µM (inactive) | 27 µM (inactive) | 73.5 µM (inactive) | 50.4 µM (inactive) | 89.1 µM (inactive) | 32 µM (inactive) | 58.9 µM (inactive) | 99.3 µM (inactive)
7 | CN1N=C(c2ccncc2)OC1c1ccc(C(F)(F)F)cc1 (stereo not given) | > 100 µM (inactive) | > 100 µM (inactive) | > 100 µM (inactive) | > 100 µM (inactive) | 44.6 µM (inactive) | > 100 | > 100 µM (inactive) | > 100 µM (inactive) | > 100 µM (inactive) | 63.5 µM (inactive) | > 100 µM (inactive) | > 100 µM (inactive) | > 100 µM (inactive) | > 100 µM (inactive) | > 100 µM (inactive) | > 100 µM (inactive) | > 100 µM (inactive) | 0.491 µM (active) | > 100 µM (inactive) | > 100 µM (inactive)
8 | Nc1cc(Cl)cc2cc(Cl)cnc12 | 49 µM (inactive) | > 100 µM (inactive) | > 100 µM (inactive) | 14 µM (inactive) | 39.9 µM (inactive) | > 100 | 89.7 µM (inactive) | 93.1 µM (inactive) | > 100 µM (inactive) | > 100 µM (inactive) | > 100 µM (inactive) | > 100 µM (inactive) | 57 µM (inactive) | > 100 µM (inactive) | > 100 µM (inactive) | > 100 µM (inactive) | > 100 µM (inactive) | 40.3 µM (inactive) | > 100 µM (inactive) | > 100 µM (inactive)
9 | c1ccc(-c2nnc(-c3ccccn3)c3c2C[C@@H]2C[C@@H]4Cc5c(-c6ccccn6)nnc(-c6ccccn6)c5[C@@H]4[C@H]32)nc1 | 2.39 µM (inactive) | 29 µM (inactive) | 24.9 µM (inactive) | 30.3 µM (inactive) | 18 µM (inactive) | 38.8 | 70.3 µM (inactive) | 58.5 µM (inactive) | 66.1 µM (inactive) | > 100 µM (inactive) | > 100 µM (inactive) | 27.5 µM (inactive) | 96.6 µM (inactive) | 85.9 µM (inactive) | 61 µM (inactive) | 58.9 µM (inactive) | 85.7 µM (inactive) | 76.6 µM (inactive) | 63.1 µM (inactive) | > 100 µM (inactive)
10 | Cn1c(=O)c2c(no[n+]2[O-])n(C)c1=O | 18.2 µM (inactive) | > 100 µM (inactive) | > 100 µM (inactive) | > 100 µM (inactive) | 28.4 µM (inactive) | > 100 | 22.6 µM (inactive) | 22.2 µM (inactive) | > 100 µM (inactive) | 21.7 µM (inactive) | 22.4 µM (inactive) | > 100 µM (inactive) | 16.1 µM (inactive) | > 100 µM (inactive) | > 100 µM (inactive) | 52.4 µM (inactive) | 63.2 µM (inactive) | 49.7 µM (inactive) | 25.4 µM (inactive) | 18.9 µM (inactive)
11 | Cc1cc(C)c2c(n1)S(=O)(=O)N(CCCN1CCN(c3cccc(C(F)(F)F)c3)CC1)C(C(=O)c1ccc(Cl)cc1)=C2O | 4.52 µM (inactive) | 2.74 µM (inactive) | 3.48 µM (inactive) | 8.15 µM (inactive) | 3.03 µM (inactive) | 1.85 | 5.55 µM (inactive) | 3.26 µM (inactive) | 3.26 µM (inactive) | 4.4 µM (inactive) | 2.47 µM (inactive) | 1.79 µM (inactive) | 2.7 µM (inactive) | 3.57 µM (inactive) | 4.71 µM (inactive) | 3.29 µM (inactive) | 3.84 µM (inactive) | 2.81 µM (inactive) | 3.69 µM (inactive) | 3.01 µM (inactive)
12 | Cc1cccc(C2NC(=O)c3ccccc3N2)c1 (stereo not given) | 6.4 µM (inactive) | 6.12 µM (inactive) | 12.9 µM (inactive) | 3.23 µM (inactive) | 7.76 µM (inactive) | 2.85 | 8.43 µM (inactive) | 4.62 µM (inactive) | 3.15 µM (inactive) | 25.8 µM (inactive) | 5.11 µM (inactive) | 3.3 µM (inactive) | 3.69 µM (inactive) | 3.22 µM (inactive) | 17.3 µM (inactive) | 2.88 µM (inactive) | 2.33 µM (inactive) | 4.5 µM (inactive) | 5.62 µM (inactive) | > 84.1 µM (inactive)
13 | N#Cc1c(C#N)c(SSc2c(C#N)c(C#N)c(N)n2-c2ccc(F)cc2)n(-c2ccc(F)cc2)c1N | 8.11 µM (inactive) | 18.9 µM (inactive) | 3.66 µM (inactive) | 2.02 µM (inactive) | 2.2 µM (inactive) | 2.03 | 25.8 µM (inactive) | 16.7 µM (inactive) | 2.9 µM (inactive) | 19.6 µM (inactive) | 6.73 µM (inactive) | 20.2 µM (inactive) | 1.7 µM (inactive) | 2.66 µM (inactive) | 17.1 µM (inactive) | 17.9 µM (inactive) | 19.2 µM (inactive) | 5.77 µM (inactive) | 2.25 µM (inactive) | 3.9 µM (inactive)
14 | CC(=O)NC1C(OCc2ccccc2)OC(CO)C(O)C1OCC(=O)NC(C)C(=O)NC(CCC(=O)NCCCCCNc1c2ccccc2nc2cccc([N+](=O)[O-])c12)C(N)=O (stereo not given) | < 0.0001 µM (active) | < 0.0001 µM (active) | < 0.0001 µM (active) | 0.000861 µM (active) | 0.00197 µM (active) | < 0.0001 | < 0.01 µM (active) | 0.00102 µM (active) | < 0.0001 µM (active) | < 0.0001 µM (active) | < 0.0001 µM (active) | < 0.0001 µM (active) | < 0.0001 µM (active) | < 0.01 µM (active) | < 0.0001 µM (active) | < 0.0001 µM (active) | < 0.0001 µM (active) | < 0.0001 µM (active) | < 0.0001 µM (active) | 0.023 µM (active)

Reference: ChEMBL document CHEMBL1201862, “PubChem BioAssay data set” (2004)
